Results taken from patent publication US20170190671A1, “BIS(ARYL)CATECHOL DERIVATIVES AS HERBICIDES” (E I DU PONT DE NEMOURS AND COMPANY, priority 2014, published 2017).

What was measured:
Assay in all cases: Test C preemergence
Assay type in all cases: in vivo
Settings in all cases: scale 0 to 100
[1] = tested on: Italian ryegrass (Lolium multiflorum)
Procedure, shortened: (§1)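 Greenhouse test; preemergence to seeds in loam/sand soil, or postemergence spray to 2-18 cm, 1- to 4-leaf plants in peat/vermiculite medium; compound in non-phytotoxic solvent plus surfactant. Visual rating vs controls at 13-15 d, 0 = no effect, 100 = complete control.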

[2] = tested on: barnyardgrass (Echinochloa crus-galli)
Procedure, shortened: as §1

[3] = tested on: blackgrass (Alopecurus myosuroides)
Procedure, shortened: as §1

corn (Zea mays) = tested on: corn (Zea mays)
Procedure, shortened: as §1

[4] = tested on: giant foxtail (Setaria faberii)
Procedure, shortened: as §1

[5] = tested on: johnsongrass (Sorghum halepense)
Procedure, shortened: as §1

[6] = tested on: lambsquarters (Chenopodium album)
Procedure, shortened: as §1

[7] = tested on: large (Lg) crabgrass (Digitaria sanguinalis)
Procedure, shortened: as §1

[8] = tested on: pigweed (Amaranthus retroflexus)
Procedure, shortened: as §1

[9] = tested on: ragweed (common ragweed, Ambrosia elatior)
Procedure, shortened: as §1

soybean (Glycine max) = tested on: soybean (Glycine max)
Procedure, shortened: as §1

[10] = tested on: velvetleaf (Abutilon theophrasti)
Procedure, shortened: as §1

[11] = tested on: winter wheat (Triticum aestivum)
Procedure, shortened: as §1

[12] = tested on: yellow nutsedge (Cyperus esculentus)
Procedure, shortened: as §1

FC(F)(F)c1cnc(Oc2c(Br)cccc2Oc2ncc(Cl)cn2)nc1 [Compound 24]
Plant response rating, Ryegrass, Italian ([1]; 31 g ai/ha, Preemergence): 55 | Plant response rating, Ryegrass, Italian ([1]; 62 g ai/ha, Preemergence): 90 | Plant response rating, Ryegrass, Italian ([1]; 125 g ai/ha, Preemergence): 95 | Plant response rating, Ryegrass, Italian ([1]; 250 g ai/ha, preemergence): 95 | Plant response rating, Barnyardgrass ([2]; 31 g ai/ha, Preemergence): 75 | Plant response rating, Barnyardgrass ([2]; 62 g ai/ha, Preemergence): 100 | Plant response rating, Barnyardgrass ([2]; 125 g ai/ha, Preemergence): 100 | Plant response rating, Barnyardgrass ([2]; 250 g ai/ha, preemergence): 100 | Plant response rating, Blackgrass ([3]; 31 g ai/ha, Preemergence): 60 | Plant response rating, Blackgrass ([3]; 62 g ai/ha, Preemergence): 95 | Plant response rating, Blackgrass ([3]; 125 g ai/ha, Preemergence): 95 | Plant response rating, Blackgrass ([3]; 250 g ai/ha, preemergence): 95 | Plant response rating, Corn (corn (Zea mays); 31 g ai/ha, Preemergence): 5 | Plant response rating, Corn (corn (Zea mays); 62 g ai/ha, Preemergence): 20 | Plant response rating, Corn (corn (Zea mays); 125 g ai/ha, Preemergence): 45 | Plant response rating, Corn (corn (Zea mays); 250 g ai/ha, preemergence): 65 | Plant response rating, Foxtail, Giant ([4]; 31 g ai/ha, Preemergence): 98 | Plant response rating, Foxtail, Giant ([4]; 62 g ai/ha, Preemergence): 98 | Plant response rating, Foxtail, Giant ([4]; 125 g ai/ha, Preemergence): 100 | Plant response rating, Foxtail, Giant ([4]; 250 g ai/ha, preemergence): 100 | Plant response rating, Johnsongrass ([5]; 31 g ai/ha, Preemergence): 40 | Plant response rating, Johnsongrass ([5]; 62 g ai/ha, Preemergence): 55 | Plant response rating, Johnsongrass ([5]; 125 g ai/ha, Preemergence): 80 | Plant response rating, Johnsongrass ([5]; 250 g ai/ha, preemergence): 100 | Plant response rating, Lambsquarters ([6]; 31 g ai/ha, Preemergence): 75 | Plant response rating, Lambsquarters ([6]; 62 g ai/ha, Preemergence): 90 | Plant response rating, Lambsquarters ([6]; 125 g ai/ha, Preemergence): 98 | Plant response rating, Lambsquarters ([6]; 250 g ai/ha, preemergence): 98 | Plant response rating, Crabgrass, Large ([7]; 31 g ai/ha, Preemergence): 100 | Plant response rating, Crabgrass, Large ([7]; 62 g ai/ha, Preemergence): 100 | Plant response rating, Crabgrass, Large ([7]; 125 g ai/ha, Preemergence): 100 | Plant response rating, Crabgrass, Large ([7]; 250 g ai/ha, preemergence): 100 | Plant response rating, Pigweed ([8]; 31 g ai/ha, Preemergence): 100 | Plant response rating, Pigweed ([8]; 62 g ai/ha, Preemergence): 100 | Plant response rating, Pigweed ([8]; 125 g ai/ha, Preemergence): 100 | Plant response rating, Pigweed ([8]; 250 g ai/ha, preemergence): 100 | Plant response rating, Ragweed ([9]; 31 g ai/ha, Preemergence): 10 | Plant response rating, Ragweed ([9]; 62 g ai/ha, Preemergence): 10 | Plant response rating, Ragweed ([9]; 125 g ai/ha, Preemergence): 30 | Plant response rating, Ragweed ([9]; 250 g ai/ha, preemergence): 80 | Plant response rating, Soybean (soybean (Glycine max); 62 g ai/ha, Preemergence): 40 | Plant response rating, Soybean (soybean (Glycine max); 125 g ai/ha, Preemergence): 50 | Plant response rating, Soybean (soybean (Glycine max); 250 g ai/ha, preemergence): 85 | Plant response rating, Velvetleaf ([10]; 31 g ai/ha, Preemergence): 40 | Plant response rating, Velvetleaf ([10]; 62 g ai/ha, Preemergence): 85 | Plant response rating, Velvetleaf ([10]; 125 g ai/ha, Preemergence): 90 | Plant response rating, Velvetleaf ([10]; 250 g ai/ha, preemergence): 90 | Plant response rating, Wheat ([11]; 31 g ai/ha, Preemergence): 15 | Plant response rating, Wheat ([11]; 62 g ai/ha, Preemergence): 30 | Plant response rating, Wheat ([11]; 125 g ai/ha, Preemergence): 60 | Plant response rating, Wheat ([11]; 250 g ai/ha, preemergence): 90 | Plant response rating, Nutsedge, Yellow ([12]; 31 g ai/ha, Preemergence): 10 | Plant response rating, Nutsedge, Yellow ([12]; 62 g ai/ha, Preemergence): 10 | Plant response rating, Nutsedge, Yellow ([12]; 125 g ai/ha, Preemergence): 30 | Plant response rating, Nutsedge, Yellow ([12]; 250 g ai/ha, preemergence): 60
